# Measurements from a melting point compilation (Tetko et al.; mined from patent text by program, amines drawn as free bases though some values may be those of a salt).
row,Structure (SMILES),melting point
1,CCOC(=O)c1cnoc1-c1ccc(Cl)cc1Cl,82 to 84 °C
2,CCc1ccc(NC(=O)NCc2ccc3c(c2)CN(C2CCC(=O)NC2=O)C3=O)cc1 (stereo not drawn),263 to 265 °C
3,CCc1c(-c2ccc(OCc3ccccc3)cc2)c2cc(C(=O)O)c3c(NC(C)=O)ccc1n23,244 to 246 °C
4,O=c1c2cccc(O)c2nc(-c2ccc(O)cc2)n1-c1ccc(OCCCl)cc1,274 to 276 °C
5,Cc1ccc(C(=O)Nc2ccc(C=O)c(C(F)(F)F)c2)cc1Br,194 to 195 °C
6,Cc1cn(-c2ccc(NC(=O)c3ccc(Cl)c(C#Cc4ccc(NC5CC5)nn4)c3)cc2C(F)(F)F)cn1,150 to 152 °C
7,Nc1n[nH]cc1-c1ccc(Cc2ccccc2)cc1,127 to 130 °C
8,CCCCCCN(C)c1ccc(C=C2SC(=S)N(CCNC(=O)C(F)(F)F)C2=O)cc1,136 to 139 °C
9,CC(C)c1nc(CO)n(CC(=O)c2ccccc2)c1Sc1cc(Cl)cc(Cl)c1,205 to 211 °C
10,CCN(CC)C(=O)c1ccc(C(c2cccc(O)c2)N2CC(C)NCC2C)cc1 (stereo not drawn),175 to 177 °C
11,COc1ccc2c(c1)Cc1nnc(OC)n1C=C2,176 to 177 °C
12,Nc1ccc(O)cc1/C=C/C(=O)CC(=O)/C=C/c1ccc(O)cc1,186 to 192 °C
13,O=C(O)[C@H](CCc1ccccc1)NS(=O)(=O)c1ccc2oc3ccccc3c2c1,130 to 132 °C
14,C(=Cc1ccc2c(c1)Sc1ccccc1N2c1ccccc1)c1ccc(-c2ccc(C=Cc3ccc4c(c3)Sc3ccccc3N4c3ccccc3)cc2)cc1,278 to 290 °C
15,CCOC(=O)CCn1c(=O)c(=O)[nH]c2cc(C(F)(F)F)c(-n3c(C)ccc3C)cc21,233 to 235 °C
16,COc1ccc(S(=O)(=O)N(CCC(=O)N2CCC(C(=O)O)CC2)C(CCc2ccccc2)C(=O)NO)cc1 (stereo not drawn),85 to 92 °C
17,CC(=O)SC(Cc1ccc(F)cc1)C(=O)O (stereo not drawn),44 to 46 °C
18,O=[N+]([O-])c1cc(S(=O)(=O)Oc2ccccc2)ccc1Cl,71 °C
19,CC(C)(C)c1csc(NC(=O)Nc2ccc(N3CCN(C(=O)Nc4ccc(OCCO)cc4C(F)(F)F)CC3)cc2)n1,130 to 132 °C
20,CC12C=CCC=C1CCC1C2C(O)CC2(C)C(CCO)=CCC12 (stereo not drawn),213 to 215 °C
21,N#Cc1ccc(O)c(C2(C(=O)O)CCCC2)c1,153 to 154 °C
22,COc1ccc(CS(=O)(=O)Cc2ccc(OC)cc2)cc1,108 to 123 °C

row,Structure (SMILES),melting point
1,Cc1nnc(-c2cc3c(-c4ccccc4Cl)coc3cn2)o1,162 to 163 °C
2,O=C(O)c1ccc(Nc2c(C(=O)O)cc(Cl)cc2[N+](=O)[O-])cc1,264 to 266 °C
3,CN(C)C(=O)ON=C1n2ccnc2SC1(C)C,99 to 102 °C
4,CS(=O)(=O)C(Cl)=C(Cl)C#N,100 °C
5,Ic1cccc(OCc2ccc3ccccc3c2)c1,111 to 112 °C
6,CCCC(=O)OCC(=O)C1(OC(=O)CCC)CCC2C3CC(C)C4=CC(=O)CCC4(C)C3C(O)CC21C (stereo not drawn),103 °C
7,CN(C)CCN1C(=O)c2ccc3[nH]c4ccc(N)cc4c3c2C1=O,217 to 218 °C
8,COc1ccc(-n2c(=O)n(O)c(=O)c3cc(F)c(N4CCCC4)cc32)cc1,224 to 226 °C
9,COCOCc1ccc(C2Cn3cc(C(=O)NCc4ccc(Cl)cc4)c(=O)c4cc(CN5CCOCC5)cc(c43)O2)cc1 (stereo not drawn),236 to 239 °C
10,COC(=O)CCCCCCCCC(=O)c1ccccc1,37 to 38 °C
11,CC(C(=O)O)c1ccc2cc(OCC=C(Cl)Cl)ccc2c1 (stereo not drawn),107 to 109 °C
12,NC(=O)NC(C(=O)O)c1cccs1 (stereo not drawn),183 to 185 °C
13,O=C(NCC(=O)N(O)CCCP(=O)(O)O)OCc1ccccc1,101 to 105 °C
14,COc1ccc(-c2c(CC(=O)O)c(-c3ccccc3)nn2-c2ccccc2)cc1,160 to 163 °C
15,CN(C)C=C(C#N)C(=O)Nc1ccccc1-n1cccc1,167 to 169 °C
16,CC1CCC(NC(=O)NS(=O)(=O)c2ccc(CCNC(=O)N3CCC(C)CC3=O)cc2)CC1 (stereo not drawn),190 to 191 °C
17,CCOc1nsc(S(C)(=O)=O)c1Cl,85 to 87 °C
18,CCc1nc(C(=O)O)c(C(=O)O)[nH]1,265 to 268 °C
19,O=C1NC(=O)C(c2c[nH]c3ccc(Br)cc23)C1c1cc2c3c(ccn3CCC2)c1 (stereo not drawn),195 to 200 °C
20,COc1ccncc1NC(=O)c1c[nH]c2c1C(=O)CCC2,209 to 210 °C
21,CNC(=O)Cc1ccc(N)c(N)c1,136 to 138 °C
22,Cc1csc2nc(C(=O)NCc3cccc(CNC(=O)c4nc[nH]n4)c3)[nH]c(=O)c12,290 to 291 °C

row,Structure (SMILES),melting point
1,Cc1nc(NCc2ccccc2C)c2nc(-c3ccccc3)cc-2[nH]1,277 to 281 °C
2,Cc1cnn(-c2ccccc2)c1-c1nn(-c2cccc(C(F)(F)F)c2)ccc1=O,208 to 211 °C
3,NC(=O)CCC(=O)Nc1c(C(=O)c2ccccc2)[nH]c2cc(Cl)ccc12,258 to 263 °C
4,Nc1ccc(-c2nc(Cc3ccccc3)no2)cc1Br,144 to 145 °C
5,O=[N+]([O-])c1ccc(Cl)c(NC(=S)NCCCO)c1,127 °C
6,O=CC1=C(Cl)C(=CO)CCC1,127 °C
7,FC(F)(F)c1ccc2c(c1)SSSSS2,44 to 50 °C
8,COc1cc(Nc2nccc(-c3ccc(C#N)cc3)n2)cc(OC)c1OC,183 °C
9,O=C(O)Cn1c(-c2cc(Cl)ccn2)nc2cccnc21,218 to 220 °C
10,COc1ccccc1NC(=O)c1ccc([N+](=O)[O-])cc1,146 to 147 °C
11,Nc1cc2oc(=O)[nH]c2cc1[N+](=O)[O-],198 °C
12,C=CCNc1nc(N2CCc3ccccc3CC2)c(C#N)c(=O)n1CC=C,181 to 182 °C
13,Clc1ccc2[nH]cc(C3=CCNCC3)c2c1,177 °C
14,Nc1ccccc1C=C1c2ccccc2CCc2ccccc21,145 °C
15,CCC(C)(C)c1ccc(OCCCCSC2C(=O)N(c3c(Cl)cc(Cl)cc3Cl)N=C2Nc2ccc(Cl)cc2Cl)c(C(C)(C)CC)c1 (stereo not drawn),142 to 144 °C
16,N#CSc1c(C2CC2)[nH]c(Cl)c1C#N,123 °C
17,CC(C)c1nnn(-c2c(Cl)cccc2Cl)c1CO,154 to 155 °C
18,O=C1CN(C(=O)c2ccccc2)c2ccccc2N1,208 °C
19,CC(C(=O)O)c1ccc2c(c1)C(=O)c1cc(Cl)ccc1CS2 (stereo not drawn),128 to 131 °C
20,CN(C)CCCN=C1CC(c2ccc(Cl)cc2Cl)Cc2c1c(=O)c1cc(Cl)ccc1n2O (stereo not drawn),172 to 174 °C
21,Cc1cc(C)cc(-c2nc3ncccc3o2)c1,148 to 152 °C

# Continued, values first:
row,melting point,Structure (SMILES)
1,131 to 132 °C,CC(O)c1nnc(-c2ccc3occ(-c4cccc(OC(F)(F)F)c4)c3c2)o1 (stereo not drawn)
2,65 to 70 °C,COc1ccc(S(=O)(=O)C(CC(=O)NO)Cc2ccc(Oc3ccccc3)cc2)cc1 (stereo not drawn)
3,81 to 84 °C,COc1ccc(S(=O)(=O)Oc2cccc(OS(=O)(=O)c3ccc(OC)cc3)c2)cc1
4,102 to 104 °C,CCCCCCCCCCCC1Cc2cc(C(=O)O)ccc2N1C (racemic)
5,142 to 145 °C,COc1ccc(O)c(C2(CO)C(=O)N(CO)c3cccc(Br)c32)n1 (stereo not drawn)
6,125 to 126 °C,COc1cc2c(cc1OCc1ccccc1)CCN(C(C)=O)C2
7,127 to 129 °C,COc1ccc(N(Cc2cc(C(C)(C)C)c(O)c(C(C)(C)C)c2)S(=O)(=O)c2ccc(C)cc2)cn1
8,114 to 118 °C,CCN1C(=O)C(C)(C)C(=O)N(C)c2cc(CN(CCn3ccc4oc(C)cc4c3=O)Cc3cccnc3C#N)ccc21
9,140 to 142 °C,CC(=O)N(C)c1nc(CN2CCN(C(c3ccccc3)c3ccccc3)CC2)cs1
10,65 to 67 °C,c1ccc(CSc2cnccn2)cc1
11,207 to 210 °C,COC1CCc2c(cc(-c3ccccc3)n2-c2ccc(O)c(C(=O)O)c2)C1 (stereo not drawn)
12,173 to 175 °C,CC1CCN(c2ccccc2C(C)C(C(N)=O)c2ccc(C(=O)O)cc2)CC1 (stereo not drawn)
13,235 to 236 °C,CC(C)(C)OC(=O)NC1Cc2cccc3[nH]c(=O)n(c23)C1 (stereo not drawn)
14,122 to 125 °C,COc1ccc(CC(=O)N[C@@H](C)CO)cc1OC
15,187 to 189 °C,COC(=O)COc1ccc2cc(-c3cnc(-c4cn(C)c5ccccc45)o3)ccc2c1
16,142 to 144 °C,CCCCOCCOc1ccc(-c2ccc3c(c2)C=C(C(=O)Nc2ccc(S(=O)Cc4ncon4)cc2)CCN3CC(C)C)cc1 (stereo not drawn)
17,106 to 108 °C,CCN(CC)C(=O)c1ccc(C)c(-c2nc(N(C)CCCN(C)C)nc3c2CNC(=O)N3c2c(F)cccc2F)c1

row,melting point,Structure (SMILES)
1,99 °C,O=C1C=C(c2cccn2Cc2ccccc2)C(=O)c2ccccc21
2,268 to 272 °C,CN1CCN(c2ccnc3c(NC(=O)c4c(Cl)cccc4Cl)cc(F)cc23)C1=O
3,180 to 182 °C,CCOC(=O)c1cc2c(Cl)c(F)ccc2[nH]1
4,192 to 193 °C,COc1cccc(CNc2n[nH]c3ncnc(Nc4cccc(Cl)c4)c23)c1
5,140 to 145 °C,O=C(c1cc(N2CCCC(F)(F)C2)ccn1)N(O)Cc1ccccc1
6,114 to 117 °C,CCOC(=O)CCCOc1nn2c(-c3ccc(OC)cc3)nnc2c2ccccc12
7,215 to 216 °C,NC1=NS(=O)(=O)Nc2cccc(OC3CCCCC3)c21
8,128 to 130 °C,CCOC(=O)c1cnc(CCOC)nc1NCc1ccc(-c2ccccc2-c2nnnn2C(c2ccccc2)(c2ccccc2)c2ccccc2)cc1
9,161 to 165 °C,O=c1[nH]c2cc(Cl)cc(Cl)c2c(=O)n1Cc1cccc(Br)c1
10,135 to 138 °C,Cc1c(C)c2c(c(C)c1O)CCC(C)(C(=O)NC1CCN(c3ccc(NC(=N)c4cccs4)cc3)C1)O2 (stereo not drawn)
11,200 °C,Fc1ccc(NC(=S)NN(c2ccccc2)c2ccccc2)cc1
12,102 °C,CC(=O)NCCN1CCCc2ccccc21
13,187 to 189 °C,CCCC(c1cc(C(=O)O)ccc1OCc1ccc(Br)cc1)n1ccnc1 (stereo not drawn)
14,234 to 235 °C,CS(=O)(=O)c1ccc(Oc2ccc3[nH]c(C4=NCC(CC(=O)NCC(F)(F)F)S4)cc3c2)cn1 (stereo not drawn)
15,36 °C,CO[C@H]1CC[C@H]([C@H]2CC[C@H](CCC=O)CC2)CC1
16,144 to 147 °C,CC(C)(C)OC(=O)N1CCC(c2nc3cc(-c4ccc(S(C)(=O)=O)cc4F)ccc3o2)CC1
